24 molecules from US20160046592A1, “PHARMACEUTICAL COMPOSITION FOR THE TREATMENT OF DIABETES” (Ajinomoto Co., Inc., priority 2013, published 2016) can be followed below.

Structures are written as SMILES. Where a name gives a salt, the structure may show the parent alone.

The experiment has as its target T1, human GYS1 (glycogen synthase) (Homo sapiens, UniProt P13807).
T1 construct: made in house; host or cells: HEK293T
T1 sequence (P13807 1-737): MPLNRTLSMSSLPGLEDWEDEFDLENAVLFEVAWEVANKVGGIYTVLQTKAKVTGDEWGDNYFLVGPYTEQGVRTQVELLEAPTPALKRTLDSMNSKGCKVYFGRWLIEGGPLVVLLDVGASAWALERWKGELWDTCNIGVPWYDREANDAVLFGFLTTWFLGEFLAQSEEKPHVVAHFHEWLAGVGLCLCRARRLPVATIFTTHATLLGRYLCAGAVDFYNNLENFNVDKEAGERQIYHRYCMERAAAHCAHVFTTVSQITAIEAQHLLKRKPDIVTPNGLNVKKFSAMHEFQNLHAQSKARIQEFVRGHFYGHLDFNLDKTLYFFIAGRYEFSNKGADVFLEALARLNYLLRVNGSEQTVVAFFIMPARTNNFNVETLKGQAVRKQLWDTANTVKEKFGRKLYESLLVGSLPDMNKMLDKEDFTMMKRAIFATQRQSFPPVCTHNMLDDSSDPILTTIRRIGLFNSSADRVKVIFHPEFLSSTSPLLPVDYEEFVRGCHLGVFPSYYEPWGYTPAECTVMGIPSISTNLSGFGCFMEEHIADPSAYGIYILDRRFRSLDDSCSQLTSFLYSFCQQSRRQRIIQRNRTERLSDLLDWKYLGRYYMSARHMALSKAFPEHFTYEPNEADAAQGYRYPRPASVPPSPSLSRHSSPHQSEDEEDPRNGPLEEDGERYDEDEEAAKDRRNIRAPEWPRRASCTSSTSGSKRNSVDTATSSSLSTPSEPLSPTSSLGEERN
In words: Measurement of glycogen synthase activity. It counts as biochemical. The settings on record: concentration causing 50% increase in relative activity; 100% = compound of Example 1 of WO/2011/058154 at 10 μM; 10 mM Glucose-6-phosphate; 37° C. for 25 minutes (Examples 1 to 61 and 67 to 82) or 20 minutes (Examples 62 to 66); absorbance at 340 nm. In outline: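 Human GYS1 from transfected HEK293T cells (re-dissolved 16000×g pellet) was reacted at 37 °C for 25 or 20 min in glycylglycine pH 7.3 with glucose-6-phosphate, glycogen and UDP-glucose. PK/LDH-coupled NADH read-out at 340 nm; EC50 from activity relative to a reference activator at 10 μM final (100%).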
Take `NC(=O)C1CC[C@@H](C(=O)O)N1C(=O)c1cccc(COc2ccc(-c3cc(F)c(F)c4ccoc34)cc2)c1` (single isomer, unassigned) [Example 4, (2S,5R) or (2S,5S)-5-Carbamoyl-1-[3-[[4-(4,5-difluorobenzofuran-7-yl)phenoxy]methyl]benzoyl]pyrrolidine-2-carboxylic Acid]: the EC50 was below 3 nM.

Regarding `CCN(CC)CCN(CC(=O)O)C(=O)c1cccc(COc2ccc(-c3cc(F)c(F)cc3SC)cc2)c1` [Example 24, 2-[2-Diethylaminoethyl-[3-[[4-(4,5-difluoro-2-methylsulfanyl-phenyl)phenoxy]methyl]benzoyl]amino]acetic Acid Trifluoroacetate], the EC50 is 11 nM. `CSc1cc(F)c(F)cc1-c1ccc(OCc2cccc(C(=O)N(CC(=O)O)Cc3ccccn3)c2)cc1` [Example 20, 2-[[3-[[4-(4,5-Difluoro-2-methylsulfanyl-phenyl)phenoxy]methyl]benzoyl]-(2-pyridylmethyl)amino]acetic Acid Trifluoroacetate] yielded an EC50 of 6.5 nM. In the case of `CSc1cc(F)c(F)cc1-c1ccc(OCc2cccc(C(=O)N(CC(=O)O)Cc3cccnc3)c2)cc1` [Example 39, 2-[[3-[[4-(4,5-Difluoro-2-methylsulfanyl-phenyl)phenoxy]methyl]benzoyl]-(3-pyridylmethyl)amino]acetic Acid Trifluoroacetate], the EC50 stood at 21 nM. In turn, `CSc1cc(F)c(F)cc1-c1ccc(OCc2cccc(C(=O)N(CC(=O)O)Cc3cnco3)c2)cc1` [Example 47, 2-[[3-[[4-(4,5-Difluoro-2-methylsulfanyl-phenyl)phenoxy]methyl]benzoyl]-(oxazol-5-ylmethyl)amino]acetic Acid] had an EC50 of 18 nM. As for `CSc1cc(F)c(F)cc1-c1ccc(OCc2cccc(C(=O)N3C(C(N)=O)CC[C@H]3C(=O)O)c2)cc1` (single isomer, unassigned) [Example 58, (2S,5S) or (2S,5R)-5-Carbamoyl-1-[3-[[4-(4,5-difluoro-2-methylsulfanyl-phenyl)phenoxy]methyl]benzoyl]pyrrolidine-2-carboxylic Acid], the figure is 7.3 nM; as for `O=C(O)CN(CC1CCOCC1)C(=O)c1cccc(COc2ccc(-c3cc(F)c(F)c4ccoc34)cc2)c1` [Example 9, 2-[[3-[[4-(4,5-Difluorobenzofuran-7-yl)phenoxy]methyl]benzoyl]-(tetrahydropyran-4-ylmethyl)amino]acetic Acid], 16 nM; as for `CSc1cc(F)c(F)cc1-c1ccc(OCc2cccc(C(=O)N(CCS(=O)(=O)N(C)C)CC(=O)O)c2)cc1` [Example 59, 2-[[3-[[4-(4,5-Difluoro-2-methylsulfanyl-phenyl)phenoxy]methyl]benzoyl]-[2-(dimethylsulfamoyl)ethyl]amino]acetic Acid], 16 nM. As for `CSc1cc(F)c(F)cc1-c1ccc(OCc2cccc(C(=O)N(CCS(C)(=O)=O)CC(=O)O)c2)cc1` [Example 31, 2-[[3-[[4-(4,5-Difluoro-2-methylsulfanyl-phenyl)phenoxy]methyl]benzoyl]-(2-methylsulfonylethyl)amino]acetic Acid], the figure is 18 nM; as for `CS(=O)(=O)NCCN(CC(=O)O)C(=O)c1cccc(COc2ccc(-c3cc(F)c(F)c4ccoc34)cc2)c1` [Example 16, 2-[[3-[[4-(4,5-Difluorobenzofuran-7-yl)phenoxy]methyl]benzoyl]-[2-(methanesulfonamido)ethyl]amino]acetic Acid], 16 nM. The molecule `CSc1cc(F)c(F)cc1-c1ccc(OCc2cccc(C(=O)N(CC(=O)O)Cc3nc(C)no3)c2)cc1` [Example 68, 2-[[3-[[4-(4,5-Difluoro-2-methylsulfanyl-phenyl)phenoxy]methyl]benzoyl]-[(3-methyl-1,2,4-oxadiazol-5-yl)methyl]amino]acetic Acid] yielded an EC50 below 3 nM. Molecule `CSc1cc(F)c(F)cc1-c1ccc(OCc2cccc(C(=O)N(CC(=O)O)Cc3ccn[nH]3)c2)cc1` [Example 54, 2-[[3-[[4-(4,5-Difluoro-2-methylsulfanyl-phenyl)phenoxy]methyl]benzoyl]-(1H-pyrazol-5-ylmethyl)amino]acetic Acid] displayed an EC50 of 15 nM.

`CCN1CCC(CN(CC(=O)O)C(=O)c2cccc(COc3ccc(-c4cc(F)c(F)cc4SC)cc3)c2)CC1` [Example 38, 2-[[3-[[4-(4,5-Difluoro-2-methylsulfanyl-phenyl)phenoxy]methyl]benzoyl]-[(1-ethyl-4-piperidyl)methyl]amino]acetic Acid Trifluoroacetate] returned an EC50 of 19 nM. As for `CSc1cc(F)c(F)cc1-c1ccc(OCc2cccc(C(=O)N(CC(=O)O)Cc3ccncn3)c2)cc1` [Example 53, 2-[[3-[[4-(4,5-Difluoro-2-methylsulfanyl-phenyl)phenoxy]methyl]benzoyl]-(pyrimidin-4-ylmethyl)amino]acetic Acid], the figure is 7.9 nM; as for `CSc1cc(F)c(F)cc1-c1ccc(OCc2cccc(C(=O)N(CC(=O)O)Cc3cscn3)c2)cc1` [Example 71, 2-[[3-[[4-(4,5-Difluoro-2-methylsulfanyl-phenyl)phenoxy]methyl]benzoyl]-(thiazol-4-ylmethyl)amino]acetic Acid], 17 nM. As for `NC(=O)CCN(CC(=O)O)C(=O)c1cccc(COc2ccc(-c3cc(F)c(F)c4ccoc34)cc2)c1` [Example 79, 2-[(3-Amino-3-oxo-propyl)-[3-[[4-(4,5-difluorobenzofuran-7-yl)phenoxy]methyl]benzoyl]amino]acetic Acid], the figure is 22 nM. Consider `CSc1cc(F)c(F)cc1-c1ccc(OCc2cccc(C(=O)N(CCCN(C)C)CC(=O)O)c2)cc1` [Example 26, 2-[[3-[[4-(4,5-Difluoro-2-methylsulfanyl-phenyl)phenoxy]methyl]benzoyl]-[3-(dimethylamino)propyl]amino]acetic Acid Trifluoroacetate], for which the EC50 amounted to 14 nM. Molecule `CSc1cc(F)c(F)cc1-c1ccc(OCc2cccc(C(=O)N(CC(=O)O)Cc3ncco3)c2)cc1` [Example 42, 2-[[3-[[4-(4,5-Difluoro-2-methylsulfanyl-phenyl)phenoxy]methyl]benzoyl]-(oxazol-2-ylmethyl)amino]acetic Acid] showed an EC50 of 19 nM. Next, `NC(=O)CN(CC(=O)O)C(=O)c1cccc(COc2ccc(-c3cc(F)c(F)c4ccoc34)cc2)c1` [Example 1, 2-[(2-Amino-2-oxo-ethyl)-[3-[[4-(4,5-difluorobenzofuran-7-yl)phenoxy]methyl]benzoyl]amino]acetic Acid]: 13 nM; `O=C(O)CN(CC1CCNCC1)C(=O)c1cccc(COc2ccc(-c3cc(F)c(F)c4ccoc34)cc2)c1` [Example 12, 2-[[3-[[4-(4,5-Difluorobenzofuran-7-yl)phenoxy]methyl]benzoyl]-(4-piperidylmethyl)amino]acetic Acid Trifluoroacetate]: 16 nM. As for `CSc1cc(F)c(F)cc1-c1ccc(OCc2cccc(C(=O)N(CC(=O)O)Cc3cocn3)c2)cc1` [Example 52, 2-[[3-[[4-(4,5-Difluoro-2-methylsulfanyl-phenyl)phenoxy]methyl]benzoyl]-(oxazol-4-ylmethyl)amino]acetic Acid], the figure is 4.4 nM; as for `CSc1cc(F)c(F)cc1-c1ccc(OCc2cccc(C(=O)N(CCc3noc(C)n3)CC(=O)O)c2)cc1` [Example 60, 2-[[3-[[4-(4,5-Difluoro-2-methylsulfanyl-phenyl)phenoxy]methyl]benzoyl]-[2-(5-methyl-1,2,4-oxadiazol-3-yl)ethyl]amino]acetic Acid], 11 nM. Next, `CSc1cc(F)c(F)cc1-c1ccc(OCc2cccc(C(=O)N(CCNS(C)(=O)=O)CC(=O)O)c2)cc1` [Example 17, 2-[[3-[[4-(4,5-Difluoro-2-methylsulfanyl-phenyl)phenoxy]methyl]benzoyl]-[2-(methanesulfonamido)ethyl]amino]acetic Acid]: 10 nM; `CSc1cc(F)c(F)cc1-c1ccc(OCc2cccc(C(=O)N(CC(=O)O)Cc3nnc(C)o3)c2)cc1` [Example 73, 2-[[3-[[4-(4,5-Difluoro-2-methylsulfanyl-phenyl)phenoxy]methyl]benzoyl]-[(5-methyl-1,3,4-oxadiazol-2-yl)methyl]amino]acetic Acid]: 15 nM.
